Laboratory results reported in PMC9493392, “N-glycosylation modulates enzymatic activity of Trypanosoma congolense trans-sialidase” (The Journal of Biological Chemistry, 2022).

What was measured:
H-TconTS1 = test system: T1, H-TconTS1; assay: HPAEC-PAD of […]'-sialyllactose formed, […] min, Michaelis-Menten fit; format: biochemical, Trypanosoma congolense; conditions: two biological replicates, purified differently after EndoHf; sialic acid acceptor; donor fetuin (600 μM bound Neu5Ac); 10 mM potassium phosphate pH 7.4, 37 °C; EndoHf-treated hypoglycosylated enzyme
T1 construct: same polypeptide as P1 (SNAP and Strep tag kept, CHO Lec1 cells), but N-glycans partly removed with EndoHf (16 h), leaving single GlcNAc residues; hypoglycosylated

TconTS1 = test system: T2, TconTS1; assay: as above; format: biochemical, Trypanosoma congolense; conditions: two biological replicates; sialic acid acceptor; donor fetuin (600 μM bound Neu5Ac); 10 mM potassium phosphate pH 7.4, 37 °C; N-glycosylated enzyme
T2 construct: catalytic plus lectin-like domain; C3 protease site, C-terminal SNAP and Strep tag kept; secreted by CHO Lec1 cells; high-mannose N-glycans; mock-incubated 16 h at 37 °C

Compound: OC[C@H]1O[C@@H](O[C@H]2[C@H](O)[C@@H](O)C(O)O[C@@H]2CO)[C@H](O)[C@@H](O)[C@H]1O (some centres unmarked) [lactose]
- KM (apparent) (H-TconTS1): 9.0 and 3.2 mM
- KM (apparent) (TconTS1): 1.7 and 2.0 mM
